Common to all, as to assay type: in vivo
In assay [1] the test system is Two-Spotted Spider Mite (Tetranychus Urticae). Kind of assay: Test against two-spotted spider mite (Tetranychus urticae), spray. The conditions noted are these: active compound concentration of 100 ppm; adult mites; after 7 days. The text has this:
(§1) Solvent: 3 parts by weight of dimethylformamide
(§2) Emulsifier: 1 part by weight of polyoxyethylene alkyl phenyl ether

The subject of assay [2] is Tobacco Cutworm (Spodoptera litura) Larvae. Kind of assay: Test against tobacco cutworm (Spodoptera litura) larvae, leaf dip. The settings on record: active compound concentration of 100 ppm, third instar larvae, after 7 days. On the procedure:
as §1, §2
Leaves of sweet potato were immersed in the test solution at the appropriate concentration, and the leaves were dried in air. The leaves were then placed in a petri dish having a diameter of 9 cm, and ten Spodoptera litura at third instar larvae were released therein. The petri dishes were placed in a temperature-controlled chamber at 25° C. After 2 days and 4 days more sweet potato leaves were added. After 7 days, the number of dead larvae was counted to calculate the insecticidal activity. An insecticidal activity of 100% means that all larvae were killed, whereas an insecticidal activity of 0% means that no larva was killed.

In assay [3] the test system is Cucurbit Leaf Beetle (Aulacophora Femoralis). Kind of assay: Test against cucurbit leaf beetle (Aulacophora femoralis), leaf dip. The settings on record: active compound concentration of 100 ppm, second instar larvae, after 7 days. On the procedure: as §1, §2
Leaves of cucumber were immersed in the test solution at the appropriate concentration, and the leaves were dried in air. The leaves were then put in a plastic cup containing sterilized black soil and five Aulacophora femoralis at second instar larvae were released in the cup. The cups were placed in a temperature-controlled chamber at 25° C. After 7 days, the number of dead larvae was counted, and thus the insecticidal activity was calculated. An insecticidal activity of 100% means that all larvae were killed, whereas an insecticidal activity of 0% means that no larva was killed.

Molecules are shown by their SMILES.

`CCC(=O)NCc1ccc(C(=O)Nc2c(C)cc(C(F)(C(F)(F)F)C(F)(F)F)cc2CC)cc1` [Compound 5-29] displayed an acaricidal activity in assay [1] of 100%. The compound also registered an insecticidal activity in assay [2] of 100%.

Regarding `CCc1cc(C(F)(C(F)(F)F)C(F)(F)F)cc(C)c1NC(=O)c1ccc(CNC(=O)CC(F)(F)F)cc1` [Compound 5-32], in assay [1], the acaricidal activity stood at 100%. In assay [2], this compound showed an insecticidal activity of 100%.

For `CCc1cc(C(F)(C(F)(F)F)C(F)(F)F)cc(C)c1NC(=O)c1ccc(CNC(=O)CSC)cc1` [Compound 5-33], the acaricidal activity in assay [1] is recorded as 100%.

`CCc1cc(C(F)(C(F)(F)F)C(F)(F)F)cc(C)c1NC(=O)c1ccc(CNC(=O)c2cccnc2F)cc1` [Compound 5-40] had an acaricidal activity in assay [1] of 100%. Also, the insecticidal activity in assay [3] came out at 100%.

In assay [1], `CCC(=O)NCc1ccc(C(=O)Nc2c(C)cc(C(F)(C(F)(F)F)C(F)(F)F)cc2CC)cc1F` [Compound 5-72] yielded an acaricidal activity of 100%. In assay [2], this compound showed an insecticidal activity of 100%.

Compound `CCc1cc(C(F)(C(F)(F)F)C(F)(F)F)cc(C)c1NC(=O)c1ccc(CNC(=O)CC2CC2)c(Cl)c1` [Compound 5-80] returned an acaricidal activity in assay [1] of 100%. In assay [2], the insecticidal activity worked out at 100%.

In turn, `CCc1cc(C(F)(C(F)(F)F)C(F)(F)F)cc(C)c1NC(=O)c1ccc(CNC(=O)CC2CC2)c(Br)c1` [Compound 5-88] came in with an acaricidal activity in assay [1] of 100%. The same compound came in with an insecticidal activity in assay [2] of 100%.

In turn, `CCc1cc(C(F)(C(F)(F)F)C(F)(F)F)cc(C)c1NC(=O)c1ccc(CNC(=O)COC)c(Br)c1` [Compound 5-91] showed an acaricidal activity in assay [1] of 100%. The compound further returned an insecticidal activity in assay [2] of 100%.

In turn, `CCc1cc(C(F)(C(F)(F)F)C(F)(F)F)cc(C)c1NC(=O)c1ccc(CNC(=O)c2ccc(F)cc2)c(Br)c1` [Compound 5-92] came in with an acaricidal activity in assay [1] of 100%.

On to `CCc1cc(C(F)(C(F)(F)F)C(F)(F)F)cc(C)c1NC(=O)c1ccc(CNC(=O)c2cccnc2Cl)c(Br)c1` [Compound 5-94], for which the acaricidal activity in assay [1] was found to be 100%. This compound also returned an insecticidal activity in assay [2] of 100%.

`CCc1cc(C(F)(C(F)(F)F)C(F)(F)F)cc(C)c1NC(=O)c1ccc(CNC(=O)CC(F)(F)F)c(C(F)(F)F)c1` [Compound 5-110]: the acaricidal activity in assay [1] amounted to 100%. The same compound came in with an insecticidal activity in assay [2] of 100%.

Take `CCc1cc(C(F)(C(F)(F)F)C(F)(F)F)cc(C)c1NC(=O)c1ccc(CNC(=O)c2cccnc2F)c(C(F)(F)F)c1` [Compound 5-112]: in assay [1], the acaricidal activity amounted to 100%. The insecticidal activity in assay [2] is on record as 100%.

With `CCc1cc(C(F)(C(F)(F)F)C(F)(F)C(F)(F)F)cc(C)c1NC(=O)c1ccc(CNC(=O)CC2CC2)c(F)c1` (centres unmarked) [Compound 5-147], in assay [1], the acaricidal activity was 100%. Also, the insecticidal activity in assay [2] turned out to be 100%.

Consider `CCc1cc(C(F)(C(F)(F)F)C(F)(F)C(F)(F)F)cc(C)c1NC(=O)c1ccc(CNC(=O)CC2CC2)c(Cl)c1` (centres unmarked) [Compound 5-153], for which the acaricidal activity in assay [1] amounted to 100%. This compound displayed an insecticidal activity in assay [2] of 100%.

The compound `CCC(=O)N(C)Cc1ccc(C(=O)Nc2c(C)cc(C(F)(C(F)(F)F)C(F)(F)F)cc2CC)cc1` [Compound 5-186] yielded an acaricidal activity in assay [1] of 100%.

The compound `CCc1cc(C(F)(C(F)(F)F)C(F)(F)F)cc(C)c1NC(=O)c1ccc(CN(C)C(=O)CC2CC2)cc1` [Compound 5-187] had an acaricidal activity in assay [1] of 100%.

As for `CCc1cc(C(F)(C(F)(F)F)C(F)(F)F)cc(C)c1NC(=O)c1ccc(CN(C)C(=O)CC(F)(F)F)cc1` [Compound 5-188], the acaricidal activity in assay [1] is reported as 100%. In assay [2], this compound yielded an insecticidal activity of 100%.

`CCc1cc(C(F)(C(F)(F)F)C(F)(F)F)cc(C)c1NC(=O)c1ccc(CNC(=O)CC(F)(F)F)c(I)c1` [Compound 5-192] displayed an acaricidal activity in assay [1] of 100%. Also, the insecticidal activity in assay [2] amounted to 100%.

`CC(=O)NCc1ccc(C(=O)Nc2c(C)cc(C(F)(C(F)(F)F)C(F)(F)C(F)(F)F)cc2C)cc1Br` (centres unmarked) [Compound 5-211]: the insecticidal activity in assay [2] and in assay [3] was 100% in each case.

`CCC(=O)NCc1ccc(C(=O)Nc2c(C)cc(C(F)(C(F)(F)F)C(F)(F)C(F)(F)F)cc2C)cc1Br` (centres unmarked) [Compound 5-212]: the insecticidal activity in assay [2] and in assay [3] was 100% in each case.

On to `CC(=O)NCc1ccc(C(=O)Nc2c(Cl)cc(C(F)(C(F)(F)F)C(F)(F)F)cc2Cl)cc1Cl` [Compound 5-229, 4-(acetamidemethyl)-3-chloro-N-[2,6-dichloro-4-(1,1,1,2,3,3,3-heptafluoropropan-2-yl)phenyl]benzamide], for which the pest or weed control at 100 ppm in assay [2] (Spodoptera litura, foliar, 168 h, read-out: insecticidal activity) amounted to 100%; in assay [3] (Aulacophora, foliar, 168 h, read-out: insecticidal activity), 100%.

For `O=C(Nc1c(Cl)cc(C(F)(C(F)(F)F)C(F)(F)F)cc1Cl)c1ccc(CNC(=O)C2CC2)c(Cl)c1` [Compound 5-231], the insecticidal activity in assay [2] and in assay [3] was 100% each time.

The compound `CCc1cc(C(F)(C(F)(F)F)C(F)(F)Br)cc(C)c1NC(=O)c1ccc(CNC(=O)CC2CC2)c(Cl)c1` (centres unmarked) [Compound 5-319] yielded an acaricidal activity in assay [1] of 100%. The insecticidal activity in assay [2] amounted to 100%.

`CCC(=O)NCc1ccc(C(=O)Nc2c(Cl)cc(C(F)(C(F)(F)F)C(F)(F)C(F)(F)F)cc2Cl)cc1` (centres unmarked) [Compound 5-323]: the insecticidal activity in assay [2] and in assay [3] was 100% throughout.

On to `O=C(CC(F)(F)F)NCc1ccc(C(=O)Nc2c(Cl)cc(C(F)(C(F)(F)F)C(F)(F)C(F)(F)F)cc2Cl)cc1` (centres unmarked) [Compound 5-324], for which the insecticidal activity in assay [2] and in assay [3] was 100% in each case.

In the case of `O=C(Nc1c(Cl)cc(C(F)(C(F)(F)F)C(F)(F)C(F)(F)F)cc1Cl)c1ccc(CNC(=O)C2CC2)cc1` (centres unmarked) [Compound 5-326], the insecticidal activity in assay [2] and in assay [3] was 100% throughout.

On to `CC(=O)NCc1ccc(C(=O)Nc2c(C)cc(C(F)(C(F)(F)F)C(F)(F)F)cc2Cl)cc1` [Compound 5-333], for which, in assay [1], the acaricidal activity is 100%.

As to `Cc1cc(C(F)(C(F)(F)F)C(F)(F)F)cc(OC(F)F)c1NC(=O)c1ccc(CNC(=O)CC2CC2)c(Cl)c1` [Compound 5-340], the acaricidal activity in assay [1] is on record as 100%. Besides, the insecticidal activity in assay [2] was 100%.

As for `CCc1cc(C(F)(C(F)(F)F)C(F)(F)F)cc(C)c1NC(=O)c1ccc(CNC(=O)CC(F)(F)F)c2ccccc12` [Compound 6-6], the insecticidal activity in assay [2] and in assay [3] was 100% in each case.

With `CCc1cc(C(F)(C(F)(F)F)C(F)(F)F)cc(C)c1NC(=O)c1ccc(CNC(=O)c2cccnc2F)c2ccccc12` [Compound 6-7], the insecticidal activity in assay [2] and in assay [3] was 100% in each case.

With `CCc1cc(C(F)(C(F)(F)F)C(F)(F)F)cc(C)c1NC(=O)c1ccc(CNC(C)=O)cn1` [Compound 7-2], the insecticidal activity in assay [2] and in assay [3] was 100% throughout.

As to `CCC(=O)NCc1ccc(C(=O)Nc2c(C)cc(C(F)(C(F)(F)F)C(F)(F)F)cc2CC)nc1` [Compound 7-3], the insecticidal activity in assay [2] and in assay [3] was 100% throughout.

For the compound `CCc1cc(C(F)(C(F)(F)F)C(F)(F)F)cc(C)c1NC(=O)c1ccc(CNC(C)=O)nc1` [Compound 8-2], the insecticidal activity in assay [2] and in assay [3] was 100% each time.

With `CCc1cc(C(F)(C(F)(F)F)C(F)(F)F)cc(C)c1NC(=O)c1ccc(C(C)NC(=O)CC(F)(F)F)cc1` (centres unmarked) [Compound 9-6], the insecticidal activity in assay [2] and in assay [3] was 100% throughout.

Regarding `CCc1cc(C(F)(C(F)(F)F)C(F)(F)F)cc(C)c1NC(=O)c1ccc2c(c1)CCC2NC(=O)CC1CC1` (centres unmarked) [Compound 10-5], in assay [1], the acaricidal activity is reported as 100%. Moreover, in assay [2], the insecticidal activity is given as 100%.

For `CCC(=O)NC1CCc2cc(C(=O)Nc3c(C)cc(C(F)(C(F)(F)F)C(F)(F)C(F)(F)F)cc3CC)ccc21` (centres unmarked) [Compound 10-10], the acaricidal activity in assay [1] is 100%. Also, the insecticidal activity in assay [2] worked out at 100%.

On to `CCc1cc(C(F)(C(F)(F)F)C(F)(F)F)cc(C)c1NC(=O)c1ccc2c(c1)CCC2NC(=O)CSC` (centres unmarked) [Compound 10-22], for which the insecticidal activity in assay [2] and in assay [3] was 100% throughout.

As for `CCc1cc(C(F)(C(F)(F)F)C(F)(F)F)cc(C)c1NC(=O)c1ccc2c(c1)CCCC2NC(C)=O` (centres unmarked) [Compound 11-2], the acaricidal activity in assay [1] was found to be 100%. This compound also showed an insecticidal activity in assay [2] of 100%.

`N#Cc1ccc(C(=O)Nc2c(Cl)cc(C(F)(C(F)(F)F)C(F)(F)F)cc2Cl)cc1` [Compound I-24]: the insecticidal activity in assay [2] and in assay [3] was 100% throughout.

In the case of `N#Cc1ccc(C(=O)Nc2c(Br)cc(C(F)(C(F)(F)F)C(F)(F)F)cc2Br)cc1` [Compound I-26], the insecticidal activity in assay [2] and in assay [3] was 100% each time.

In the case of `N#Cc1ccc(C(=O)Nc2c(Cl)cc(C(F)(C(F)(F)F)C(F)(F)C(F)(F)F)cc2Cl)cc1` (centres unmarked) [Compound I-27], the insecticidal activity in assay [2] and in assay [3] was 100% in each case.

The values are drawn from patent publication US9227923B2, “Pesticidal carboxamides” (Bayer Intellectual Property GmbH, priority 2009, dated 2016).
